Values quoted from earlier work as cited in patent US20090318377A1, “MEDICAGENIC ACID SAPONIN AND USES THEREOF” (MEDICAGO INC., priority 2006, published 2009).

System: Syrian Golden hamster
Settings: average daily dose 128 mg/kg for 4 weeks

## soyasaponin B
  reduction in high-density lipoprotein (HDL): 33%
  reduction in plasma cholesterol: 20%
  reduction in triglycerides: 18%
